According to patent US20160280631A1, “ESTER COMPOUNDS INCLUDING TRIESTERS HAVING TERMINAL VICINAL ACYL GROUPS” (BIOSYNTHETIC TECHNOLOGIES, LLC., priority 2015, published 2016):

Test: kinematic viscosity (ASTM Method D445-97)
Type: physicochemical
Settings: measured at 100° C.
Protocol: Except as otherwise described, pour point is measured by ASTM Method D97-96a, cloud point is measured by ASTM Method D2500, viscosity/kinematic viscosity is measured by ASTM Method D445-97, viscosity index is measured by ASTM Method D2270-93 (Reapproved 1998), specific gravity is measured by ASTM Method D4052, flash point is measured by ASTM Method D92, evaporative loss is measured by ASTM Method D5800, vapor pressure is measured by ASTM Method D5191, and acute aqueous toxicity is measured by Organization of Economic Cooperation and Development (OECD) 203.

| kinematic viscosity | Compound |
| --- | --- |
| less than 10 cSt | CCCCC(CC)COC(=O)CCCCCCCCC(COC(=O)C(C)C)OC(=O)C(C)C (centres unmarked) [Example 5] |
| less than 10 cSt | CCCCC(CC)COC(=O)CCCCCCCCC(COC(C)=O)OC(C)=O (centres unmarked) [Example 4] |
